Data taken from PubChem BioAssay AID1963979 (Molecular Pharmacology Branch, DTP, NCI, 2024).

Tested on: 361931-004-R-J1-PDC multicell spheroid viability
Assay: Anticancer human tumor 361931-004-R-J1-PDC patient-derived colon adenocarcinoma cell line growth inhibition [PI3K]
Settings: for IC50: curve of first compound; for viability, T/C: stronger effect = lower value
Procedure, shortened: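 Multi-cell spheroids combine tumor cells with HUVEC and human MSCs, treated with targeted agents alone or with inavolisib, alpelisib, duvelisib or copanlisib. Concentrations fall in half-log steps from at or near clinical Cmax, or from 10 microM where Cmax is unknown; viability read-out.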

[1] = second compound 0.0316 µM, first compound 0.0316 µM
[2] = second compound 0.0316 µM, first compound 0.1 µM
[3] = second compound 0.0316 µM, first compound 0.316 µM
[4] = second compound 0.0316 µM, first compound 1 µM
[5] = second compound 0.0316 µM, first compound 3.16 µM
[6] = second compound 0.0316 µM, first compound 10 µM
[7] = second compound 0.1 µM, first compound 0.0316 µM
[8] = second compound 0.1 µM, first compound 0.1 µM
[9] = second compound 0.1 µM, first compound 0.316 µM
[10] = second compound 0.1 µM, first compound 1 µM
[11] = second compound 0.1 µM, first compound 3.16 µM
[12] = second compound 0.1 µM, first compound 10 µM
[13] = second compound 0.316 µM, first compound 0.0316 µM
[14] = second compound 0.316 µM, first compound 0.1 µM
[15] = second compound 0.316 µM, first compound 0.316 µM
[16] = second compound 0.316 µM, first compound 1 µM
[17] = second compound 0.316 µM, first compound 3.16 µM
[18] = second compound 0.316 µM, first compound 10 µM
[19] = second compound 1 µM, first compound 0.0316 µM
[20] = second compound 1 µM, first compound 0.1 µM
[21] = second compound 1 µM, first compound 0.316 µM
[22] = second compound 1 µM, first compound 1 µM
[23] = second compound 1 µM, first compound 3.16 µM
[24] = second compound 1 µM, first compound 10 µM
[25] = second compound 3.16 µM, first compound 0.0316 µM
[26] = second compound 3.16 µM, first compound 0.1 µM
[27] = second compound 3.16 µM, first compound 0.316 µM
[28] = second compound 3.16 µM, first compound 1 µM
[29] = second compound 3.16 µM, first compound 3.16 µM
[30] = second compound 3.16 µM, first compound 10 µM
[31] = second compound 10 µM, first compound 0.0316 µM
[32] = second compound 10 µM, first compound 0.1 µM
[33] = second compound 10 µM, first compound 0.316 µM
[34] = second compound 10 µM, first compound 1 µM
[35] = second compound 10 µM, first compound 3.16 µM
[36] = second compound 10 µM, first compound 10 µM
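Note: spheroids exposed to agents for seven days before readout.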

SMILES: Cn1ncc(Cl)c1-c1cc(C(=O)NC(CN)Cc2cccc(F)c2)sc1Cl (stereo not given) + COc1c(OCCCN2CCOCC2)ccc2c3n(c(=NC(=O)c4cnc(N)nc4)nc12)CCN3
- IC50 (second compound 0.00316 µM): 2.52 µM
- IC50 (second compound 0.01 µM): 1.91 µM
- IC50 (second compound 0.0316 µM): 1.82 µM
- IC50 (second compound 0.1 µM): 1.57 µM
- IC50 (second compound 0.316 µM): 0.0491 µM
- IC50 (second compound 1 µM): < 0.0316 µM
- viability, T/C (second compound 0.00316 µM, first compound 0.0316 µM): 104%
- viability, T/C (second compound 0.00316 µM, first compound 0.1 µM): 111%
- viability, T/C (second compound 0.00316 µM, first compound 0.316 µM): 100%
- viability, T/C (second compound 0.00316 µM, first compound 1 µM): 80.6%
- viability, T/C (second compound 0.00316 µM, first compound 3.16 µM): 42.5%
- viability, T/C (second compound 0.00316 µM, first compound 10 µM): 27.4%
- viability, T/C (second compound 0.01 µM, first compound 0.0316 µM): 104%
- viability, T/C (second compound 0.01 µM, first compound 0.1 µM): 102%
- viability, T/C (second compound 0.01 µM, first compound 0.316 µM): 94.8%
- viability, T/C (second compound 0.01 µM, first compound 1 µM): 66.7%
- viability, T/C (second compound 0.01 µM, first compound 3.16 µM): 37.2%
- viability, T/C (second compound 0.01 µM, first compound 10 µM): 26.7%
- viability, T/C [1]: 94.9%
- viability, T/C [2]: 101%
- viability, T/C [3]: 90.6%
- viability, T/C [4]: 61.6%
- viability, T/C [5]: 40.1%
- viability, T/C [6]: 25.6%
- viability, T/C [7]: 83.4%
- viability, T/C [8]: 83.9%
- viability, T/C [9]: 74.2%
- viability, T/C [10]: 63%
- viability, T/C [11]: 31.6%
- viability, T/C [12]: 19%
- viability, T/C [13]: 54.2%
- viability, T/C [14]: 43.5%
- viability, T/C [15]: 40.5%
- viability, T/C [16]: 35.8%
- viability, T/C [17]: 30.9%
- viability, T/C [18]: 15.8%
- viability, T/C [19]: 19.7%
- viability, T/C [20]: 19.4%
- viability, T/C [21]: 18.7%
- viability, T/C [22]: 20.3%
- viability, T/C [23]: 19.7%
- viability, T/C [24]: 10.3%

SMILES: CC1(C)CCC(CN2CCN(c3ccc(C(=O)NS(=O)(=O)c4ccc(NCC5CCOCC5)c([N+](=O)[O-])c4)c(Oc4cnc5[nH]ccc5c4)c3)CC2)=C(c2ccc(Cl)cc2)C1 + Cc1nc(NC(=O)N2CCCC2C(N)=O)sc1-c1ccnc(C(C)(C)C(F)(F)F)c1
- IC50 (second compound 0.0316 µM): 4.14 µM
- IC50 (second compound 0.1 µM): 4.3 µM
- IC50 (second compound 0.316 µM): 4.19 µM
- IC50 (second compound 1 µM): 3.89 µM
- IC50 (second compound 3.16 µM): 2.71 µM
- IC50 (second compound 10 µM): 1.52 µM
- viability, T/C [1]: 108%
- viability, T/C [2]: 100%
- viability, T/C [3]: 111%
- viability, T/C [4]: 99.7%
- viability, T/C [5]: 64.9%
- viability, T/C [6]: 1.71%
- viability, T/C [7]: 106%
- viability, T/C [8]: 100%
- viability, T/C [9]: 108%
- viability, T/C [10]: 99.1%
- viability, T/C [11]: 67.8%
- viability, T/C [12]: 1.27%
- viability, T/C [13]: 104%
- viability, T/C [14]: 107%
- viability, T/C [15]: 96%
- viability, T/C [16]: 93%
- viability, T/C [17]: 65.6%
- viability, T/C [18]: 1.32%
- viability, T/C [19]: 87.1%
- viability, T/C [20]: 102%
- viability, T/C [21]: 84.8%
- viability, T/C [22]: 83.1%
- viability, T/C [23]: 61.2%
- viability, T/C [24]: 0.97%
- viability, T/C [25]: 85.7%
- viability, T/C [26]: 77%
- viability, T/C [27]: 78.2%
- viability, T/C [28]: 80%
- viability, T/C [29]: 45.4%
- viability, T/C [30]: 1.07%
- viability, T/C [31]: 65.1%
- viability, T/C [32]: 67.7%
- viability, T/C [33]: 60.3%
- viability, T/C [34]: 62.2%
- viability, T/C [35]: 29%
- viability, T/C [36]: 1.43%

SMILES: Cn1ncc(Cl)c1-c1cc(C(=O)NC(CN)Cc2cccc(F)c2)sc1Cl (stereo not given)
- viability, T/C (compound 0.0316 µM): 94.2% [middle of 4 runs]
- viability, T/C (compound 0.1 µM): 97.2% [middle of 4 runs]
- viability, T/C (compound 3.16 µM): 46.3% [middle of 4 runs]
- viability, T/C (compound 10 µM): 29.7% [middle of 4 runs]

SMILES: Cn1nccc1Nc1nccc(-c2ccn(C(CO)c3ccc(Cl)c(F)c3)c(=O)c2)n1 (stereo not given) + Cc1nc(NC(=O)N2CCCC2C(N)=O)sc1-c1ccnc(C(C)(C)C(F)(F)F)c1
- IC50 (second compound 0.0316 µM): 9.92 µM
- IC50 (second compound 0.1 µM): 7.97 µM
- IC50 (second compound 0.316 µM): 6.31 µM
- IC50 (second compound 1 µM): 3.14 µM
- IC50 (second compound 3.16 µM): 1.19 µM
- IC50 (second compound 10 µM): 0.213 µM
- viability, T/C [1]: 106%
- viability, T/C [2]: 101%
- viability, T/C [3]: 90.4%
- viability, T/C [4]: 94.5%
- viability, T/C [5]: 85.9%
- viability, T/C [6]: 49.2%
- viability, T/C [7]: 108%
- viability, T/C [8]: 109%
- viability, T/C [9]: 101%
- viability, T/C [10]: 89.4%
- viability, T/C [11]: 78.8%
- viability, T/C [12]: 42.9%
- viability, T/C [13]: 112%
- viability, T/C [14]: 110%
- viability, T/C [15]: 95.5%
- viability, T/C [16]: 86.8%
- viability, T/C [17]: 69.8%
- viability, T/C [18]: 37.3%
- viability, T/C [19]: 99.5%
- viability, T/C [20]: 99.6%
- viability, T/C [21]: 94%
- viability, T/C [22]: 83.2%
- viability, T/C [23]: 49.4%
- viability, T/C [24]: 26.9%
- viability, T/C [25]: 91.4%
- viability, T/C [26]: 87.2%
- viability, T/C [27]: 75.9%
- viability, T/C [28]: 56.6%
- viability, T/C [29]: 24%
- viability, T/C [30]: 10.4%
- viability, T/C [31]: 80%
- viability, T/C [32]: 63.5%
- viability, T/C [33]: 43.6%
- viability, T/C [34]: 19%
- viability, T/C [35]: 4.98%
- viability, T/C [36]: 2.3%
